How the values were obtained:
[1] = Water solubility test of coated urea (5 gram sample in 200 grams distilled water at 39° C., urea dissolved after 10 hours); type: physicochemical
Procedure: The mixture was swirled briefly only when the sample was added and at the end of 10 hours. The percent of the urea dissolved in 10 hours was measured to be 45 by weight.

Fresh rumen fluid = test: In-vitro urea conversion test: ruminal synthesis of urea to microbial crude protein (MCP) in rumen fluid; parameters: species or system heifer
Procedure: A series of urea conversion in-vitro tests were arranged using the following materials: (1) Fresh rumen fluid withdrawn via a pump through a strainer from a heifer receiving no feed for the prior two days. (2) Simulated Saliva composition of E. I. McGougal in Biochemical Journal, Vol. 43, page 106. (3) Cellulose energy source, Whatman Chromedia Microgranular Cellulose, free from other nutrient compounds. […] The in-vitro tests were run with each sample in a 250 ml Erlenmeyer flask receiving the ingredients listed as follows: [table] The test flasks were placed in a constant temperature bath operating at 39° C. Carbon dioxide was used to displace the air in the flasks. Samples amounting to 10 grams were withdrawn on an accurate time schedule with the air in the sample container replaced by carbon dioxide. The samples were immediately treated with 1 percent mercuric chloride to terminate microbial activity in the samples. The samples were analyzed for total nitrogen, ammonia nitrogen, and […] by difference.

For `NC(N)=O` [Test No. 6, urea], the “urea water solubilities at 39° C. (in words)” value [1] was “high”, the “synthesis efficiencies to MCP (in words)” value (Fresh rumen fluid; after 8 hours) was “low” and the “Urea Synthesized to MCP” value (Fresh rumen fluid; rumen fluid, 8 hours) was 3.6%.

From patent publication US20040039062A1, “Urea, ruminally synthesizable mainly to microbial crude protein” (Agri-Nutrients Technology Group, Inc., priority 2002, published 2004)
